Data as given in PubChem BioAssay AID2060499 (Molecular Pharmacology Branch, DTP, NCI, 2025).

Tested on: 777334-354-R2-J4-PDC tumor spheroids with HUVEC/MSC, viability
Test: Anticancer human tumor 777334-354-R2-J4-PDC patient-derived pancreatic adenocarcinoma cell line growth inhibition [GQUAD]
Conditions: for IC50: curve of first compound; for viability, T/C: stronger effect = lower value
Description: DNA G-quadruplex Stabilizer Agents in Combinations in Complex Spheroids
A high-throughput screen of multi-cell type tumor spheroids was designed to identify active combinations of DNA G-quadruplex stabilizer agents and targeted small molecules. Complex spheroids include a stromal component modeled by human endothelial cells (HUVEC) and fibroblasts modeled by human mesenchymal stem cells (MSCs). The concentration ranges selected for each drug and investigational agent were based upon clinically achievable concentrations if the clinical Cmax of the agent was known.
Compounds. The drugs and investigational agents: pidnarulex (CX-5461; NSC782164), APTO-253 (NSC789042), BRACO-19 (NSC847499), peposertib (NSC802822), ceralasertib (NSC780249), elimusertib (NSC800525), camonsertib (NSC841442), AZD-1390 (NSC803789), olaparib (NSC753686), talazoparib (NSC767125), ART-558 (NSC835418), sotorasib (NSC818433), MRTX-1133 (NSC836407), SN-38 (NSC673596), topotecan (NSC609699), etoposide (NSC141540), doxorubicin (NSC123127), gemcitabine (NSC613327), 5-fluorouracil (NSC19893), paclitaxel (NSC125973), vemurafenib (NSC761431), panobinostat (NSC761190), R-306465 (JNJ-16241199; NSC773264), adavosertib (NSC754352), TP-3654 (NSC805149), carboplatin (NSC241240), KSQ-4279 (NSC840948), and staurosporine (NSC755774) were obtained from the National Cancer Institute (NCI) Developmental Therapeutics Program Chemical Repository (34). The FDA-approved anticancer drug set is available from the NCI Developmental Therapeutics Program. […] The stock solutions were prepared in dimethyl sulfoxide (DMSO, Sigma-Aldrich, St. Louis, MO, cat. D2650) at 800-fold the tested concentration and stored at -70 degrees C prior to their use. All drugs and investigational agents were tested over a range starting from a high concentration at or near the clinical Cmax and decreasing in half-log increments. If the clinical Cmax for an agent had not been determined, the highest concentration tested was 10 microM.
2.3 Cell Culture. All cells were maintained in an incubator at 37 degrees C and 5% CO2 with 95% humidity. The PDC lines were cultured according to standard operating procedures established by the NCI PDMR. All PDCs were thawed and cultured in Matrigel-coated flasks prepared with a working solution of 1X Ham's F-12 nutrient mix, without supplementation (Invitrogen, cat. 11765054), 100 U/mL penicillin-streptomycin (Invitrogen, cat. 15140122), and 2.5% Matrigel (Corning Inc., cat. 354248) for the first three passages. The 857933-349-R-J2-PDC line was cultured in 6C/Colon 1B media, which includes advanced DMEM/F-12 (Thermo Fisher Scientific, cat. 12634028), 10 mM HEPES (Thermo Fisher Scientific, cat. 15630080), 1X GlutaMAX supplement (Thermo Fisher Scientific, cat. 35050061), 0.1 mg/mL primocin (InvivoGen, cat. ant-pm-2), 10% defined fetal bovine serum, heat inactivated (HyClone Laboratories Inc., cat. SH30070.03HI), 50% L-WRN conditioned media (ATCC, cat. CRL-3276), 1.25 mM N-Acetyl-L-cysteine (Sigma-Aldrich, cat. A9165), 10 mM nicotinamide (Sigma-Aldrich, cat. N0636), 1X B-27 supplement (Thermo Fisher Scientific, cat. 17504044), 1X N-2 supplement (Thermo Fisher Scientific, cat. 17502048), 10 microM Y-27632 dihydrochloride (Tocris Bioscience, cat. 1254), and 50 ng/mL human EGF recombinant protein (Thermo Fisher Scientific, cat. PHG0311). The 485176-168-R4-J1-PDC line was cultured in Panc media, which includes all 6C/Colon 1B media components plus 100 ng/mL human FGF-10 (Thermo Fisher Scientific, cat. 100-26), 500 nM SB-431542 (Selleckchem, cat. S1067), and gastrin (Tocris, cat. 3006).
[…]

[1] = second compound 0.0316 µM, first compound 0.0316 µM
[2] = second compound 0.0316 µM, first compound 0.1 µM
[3] = second compound 0.0316 µM, first compound 0.316 µM
[4] = second compound 0.0316 µM, first compound 1 µM
[5] = second compound 0.0316 µM, first compound 3.16 µM
[6] = second compound 0.0316 µM, first compound 10 µM
[7] = second compound 0.1 µM, first compound 0.0316 µM
[8] = second compound 0.1 µM, first compound 0.1 µM
[9] = second compound 0.1 µM, first compound 0.316 µM
[10] = second compound 0.1 µM, first compound 1 µM
[11] = second compound 0.1 µM, first compound 3.16 µM
[12] = second compound 0.1 µM, first compound 10 µM
[13] = second compound 0.316 µM, first compound 0.0316 µM
[14] = second compound 0.316 µM, first compound 0.1 µM
[15] = second compound 0.316 µM, first compound 0.316 µM
[16] = second compound 0.316 µM, first compound 1 µM
[17] = second compound 0.316 µM, first compound 3.16 µM
[18] = second compound 0.316 µM, first compound 10 µM
[19] = second compound 1 µM, first compound 0.0316 µM
[20] = second compound 1 µM, first compound 0.1 µM
[21] = second compound 1 µM, first compound 0.316 µM
[22] = second compound 1 µM, first compound 1 µM
[23] = second compound 1 µM, first compound 3.16 µM
[24] = second compound 1 µM, first compound 10 µM
[25] = second compound 3.16 µM, first compound 0.0316 µM
[26] = second compound 3.16 µM, first compound 0.1 µM
[27] = second compound 3.16 µM, first compound 0.316 µM
[28] = second compound 3.16 µM, first compound 1 µM
[29] = second compound 3.16 µM, first compound 3.16 µM
[30] = second compound 3.16 µM, first compound 10 µM
[31] = second compound 10 µM, first compound 0.0316 µM
[32] = second compound 10 µM, first compound 0.1 µM
[33] = second compound 10 µM, first compound 0.316 µM
[34] = second compound 10 µM, first compound 1 µM
[35] = second compound 10 µM, first compound 3.16 µM
[36] = second compound 10 µM, first compound 10 µM
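Also: spheroids exposed to compounds for 7 days before readout.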

Cc1cccc(N(C)C(=O)C2C(O)CCN2c2nc(C)cc(C(F)(F)F)c2C#N)c1 (centres undefined) + CN(C)c1ccc(Nc2c3ccc(NC(=O)CCN4CCCC4)cc3nc3cc(NC(=O)CCN4CCCC4)ccc23)cc1
IC50 (second compound 0.0316 µM): > 10000 nM | IC50 (second compound 0.1 µM): > 10000 nM | IC50 (second compound 0.316 µM): > 10000 nM | IC50 (second compound 1 µM): > 10000 nM | IC50 (second compound 3.16 µM): > 10000 nM | IC50 (second compound 10 µM): 10000 nM | viability, T/C [1]: 89.3% | viability, T/C [2]: 87.3% | viability, T/C [3]: 101% | viability, T/C [4]: 87.2% | viability, T/C [5]: 93.2% | viability, T/C [6]: 89.7% | viability, T/C [7]: 87.1% | viability, T/C [8]: 93.3% | viability, T/C [9]: 85.1% | viability, T/C [10]: 93.1% | viability, T/C [11]: 95.2% | viability, T/C [12]: 90.9% | viability, T/C [13]: 95.3% | viability, T/C [14]: 79.1% | viability, T/C [15]: 94.8% | viability, T/C [16]: 89.1% | viability, T/C [17]: 106% | viability, T/C [18]: 88.5% | viability, T/C [19]: 90.7% | viability, T/C [20]: 82.5% | viability, T/C [21]: 76.6% | viability, T/C [22]: 84.1% | viability, T/C [23]: 96.7% | viability, T/C [24]: 81.8% | viability, T/C [25]: 77% | viability, T/C [26]: 71.2% | viability, T/C [27]: 85.1% | viability, T/C [28]: 75.3% | viability, T/C [29]: 80.1% | viability, T/C [30]: 80.6% | viability, T/C [31]: 73.7% | viability, T/C [32]: 79% | viability, T/C [33]: 69.9% | viability, T/C [34]: 71.7% | viability, T/C [35]: 62.8% | viability, T/C [36]: 50%

CC1COCCN1c1cc(C2(O)CC3CCC(C2)O3)c2cnn(-c3ccn[nH]3)c2n1 (centres undefined) + Cc1cnc(CNC(=O)c2c(=O)c3ccc(N4CCCN(C)CC4)nc3n3c2sc2ccccc23)cn1
IC50 (second compound 0.0316 µM): 128 nM | IC50 (second compound 0.1 µM): 144 nM | IC50 (second compound 0.316 µM): 158 nM | IC50 (second compound 1 µM): 130 nM | IC50 (second compound 3.16 µM): < 31.6 nM | IC50 (second compound 10 µM): < 31.6 nM | viability, T/C [1]: 62% | viability, T/C [2]: 46.6% | viability, T/C [3]: 45.6% | viability, T/C [4]: 37.3% | viability, T/C [5]: 32.6% | viability, T/C [6]: 21.5% | viability, T/C [7]: 65.9% | viability, T/C [8]: 46.5% | viability, T/C [9]: 46.4% | viability, T/C [10]: 34.8% | viability, T/C [11]: 31.9% | viability, T/C [12]: 18.4% | viability, T/C [13]: 54.1% | viability, T/C [14]: 55% | viability, T/C [15]: 46% | viability, T/C [16]: 37.1% | viability, T/C [17]: 30.6% | viability, T/C [18]: 16.5% | viability, T/C [19]: 59.7% | viability, T/C [20]: 46.1% | viability, T/C [21]: 45.6% | viability, T/C [22]: 39.7% | viability, T/C [23]: 26.4% | viability, T/C [24]: 15% | viability, T/C [25]: 40.8% | viability, T/C [26]: 46.1% | viability, T/C [27]: 46.3% | viability, T/C [28]: 34.2% | viability, T/C [29]: 21.4% | viability, T/C [30]: 14.9% | viability, T/C [31]: 46.8% | viability, T/C [32]: 42.8% | viability, T/C [33]: 39% | viability, T/C [34]: 29.6% | viability, T/C [35]: 18.7% | viability, T/C [36]: 11.2%
